# Measurements from ChEMBL document CHEMBL5236576, “Discovery of a potent M5 antagonist with improved clearance profile. Part 2: Pyrrolidine amide-based antagonists” (Bioorg Med Chem Lett, 2022).
# The source made the active and inactive calls. No cut-off for these calls is given here.
# Biological target: T1, Muscarinic acetylcholine receptor M5 (Homo sapiens) (UniProt P08912)
# T1 sequence (whole entry): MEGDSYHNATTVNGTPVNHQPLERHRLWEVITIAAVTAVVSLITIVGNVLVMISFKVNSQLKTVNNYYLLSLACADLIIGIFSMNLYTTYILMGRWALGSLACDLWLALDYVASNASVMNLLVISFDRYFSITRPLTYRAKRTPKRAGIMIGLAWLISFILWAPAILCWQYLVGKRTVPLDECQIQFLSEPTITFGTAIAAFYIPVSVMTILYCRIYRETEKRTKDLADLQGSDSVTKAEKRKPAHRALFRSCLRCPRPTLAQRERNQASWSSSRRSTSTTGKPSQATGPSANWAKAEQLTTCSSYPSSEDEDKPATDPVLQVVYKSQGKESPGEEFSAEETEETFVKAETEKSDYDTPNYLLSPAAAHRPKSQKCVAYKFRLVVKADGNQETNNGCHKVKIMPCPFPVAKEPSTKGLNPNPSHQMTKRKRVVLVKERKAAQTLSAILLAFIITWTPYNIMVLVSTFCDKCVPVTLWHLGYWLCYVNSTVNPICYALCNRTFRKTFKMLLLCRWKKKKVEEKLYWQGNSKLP
# Assay: (§1) Antagonist activity at human muscarinic M5 receptor expressed in CHO cells in the presence of acetylcholine by calcium mobilisation assay
# Format: cell-based
# Details: not given
row,SMILES,Activity
1,O=C(Nc1ccc2scnc2c1)[C@@H]1CCN(S(=O)(=O)c2cccnc2)C1,inactive
2,O=C(Nc1ccc2scnc2c1)[C@@H]1CCN(S(=O)(=O)c2ccc(Cl)nc2)C1,inactive
3,O=C(Nc1ccc2scnc2c1)[C@H]1CN(S(=O)(=O)c2ccc3c(c2)CCO3)C[C@@H]1C(F)(F)F,inactive

# Biological target: T2, Muscarinic acetylcholine receptor M5 (Homo sapiens, UniProt P08912)
# T2 sequence (P08912 whole entry): T1 sequence (whole entry)
# Assay: as §1
# Format: cell-based
# Details: not given
row,SMILES,IC50 [nM]
1,O=C(Nc1ccc2scnc2c1)[C@H]1CCN(S(=O)(=O)c2ccc3c(c2)CCO3)C1,440
2,Cn1cc(S(=O)(=O)N2CC[C@@H](C(=O)Nc3ccc4scnc4c3)C2)c(C(F)(F)F)n1,> 10000
3,O=C(Nc1ccc2scnc2c1)C1CCN(S(=O)(=O)c2ccc3c(c2)CCO3)C1 (stereo not given),47
4,O=C(Nc1ccc2scnc2c1)[C@@H]1CCN(S(=O)(=O)c2ccc3c(c2)CCO3)C1,21
5,C[C@H]1CN(S(=O)(=O)c2ccc3c(c2)CCO3)C[C@@H]1C(=O)Nc1ccc2scnc2c1,87
6,O=C(Nc1ccc2scnc2c1)C12CC1CN(S(=O)(=O)c1ccc3c(c1)CCO3)C2 (racemic),270

# Biological target: T1, Muscarinic acetylcholine receptor M5 (Homo sapiens)
# Assay: Antagonist activity at human muscarinic M5 receptor expressed in CHO cells assessed as minimal acetylcholine response by calcium mobilisation assay relative to control
# Format: cell-based
# Design: concentration or dose not given beside the values
# Details: not given
row,SMILES,Activity [%]
1,Cn1cc(S(=O)(=O)N2CC[C@@H](C(=O)Nc3ccc4scnc4c3)C2)c(C(F)(F)F)n1,59

# Same assay, conditions: filed as antagonist
row,SMILES,Activity [%]
1,O=C(Nc1ccc2scnc2c1)[C@H]1CCN(S(=O)(=O)c2ccc3c(c2)CCO3)C1,3
2,O=C(Nc1ccc2scnc2c1)C1CCN(S(=O)(=O)c2ccc3c(c2)CCO3)C1 (stereo not given),2
3,O=C(Nc1ccc2scnc2c1)[C@@H]1CCN(S(=O)(=O)c2ccc3c(c2)CCO3)C1,2
4,C[C@H]1CN(S(=O)(=O)c2ccc3c(c2)CCO3)C[C@@H]1C(=O)Nc1ccc2scnc2c1,2
5,O=C(Nc1ccc2scnc2c1)C12CC1CN(S(=O)(=O)c1ccc3c(c1)CCO3)C2 (racemic),2

# Same assay, conditions: filed as antagonist, tested as the 2H-labelled form
row,SMILES,Activity [%]
1,O=C(Nc1ccc2scnc2c1)[C@@H]1CCN(S(=O)(=O)c2ccc3c(c2)CCO3)C1,2

# System: not listed separately
# Assay: Lipophilicity, logD of the compound at pH 7.4
# Format: physicochemical
# Details: buffer
row,SMILES,logD
1,O=C(Nc1ccc2scnc2c1)[C@H]1CCN(S(=O)(=O)c2ccc3c(c2)CCO3)C1,2.51
2,O=C(Nc1ccc2scnc2c1)[C@@H]1CCN(S(=O)(=O)c2cccnc2)C1,1.65
3,Cn1cc(S(=O)(=O)N2CC[C@@H](C(=O)Nc3ccc4scnc4c3)C2)c(C(F)(F)F)n1,2.62
4,O=C(Nc1ccc2scnc2c1)[C@@H]1CCN(S(=O)(=O)c2ccc(Cl)nc2)C1,2.41
5,O=C(Nc1ccc2scnc2c1)[C@@H]1CCN(S(=O)(=O)c2ccc3c(c2)CCO3)C1,2.53
6,C[C@H]1CN(S(=O)(=O)c2ccc3c(c2)CCO3)C[C@@H]1C(=O)Nc1ccc2scnc2c1,2.94
7,O=C(Nc1ccc2scnc2c1)C12CC1CN(S(=O)(=O)c1ccc3c(c1)CCO3)C2 (racemic),2.88
8,O=C(Nc1ccc2scnc2c1)[C@H]1CN(S(=O)(=O)c2ccc3c(c2)CCO3)C[C@@H]1C(F)(F)F,3.65

# System: not listed separately
# Assay: Intrinsic clearance in human
# Format: ADME
# Details: not given
row,SMILES,CLint scaled [mL/min/kg]
1,O=C(Nc1ccc2scnc2c1)[C@H]1CCN(S(=O)(=O)c2ccc3c(c2)CCO3)C1,64
2,O=C(Nc1ccc2scnc2c1)C1CCN(S(=O)(=O)c2ccc3c(c2)CCO3)C1 (stereo not given),72
3,O=C(Nc1ccc2scnc2c1)[C@@H]1CCN(S(=O)(=O)c2ccc3c(c2)CCO3)C1,50.6
4,C[C@H]1CN(S(=O)(=O)c2ccc3c(c2)CCO3)C[C@@H]1C(=O)Nc1ccc2scnc2c1,5
5,O=C(Nc1ccc2scnc2c1)C12CC1CN(S(=O)(=O)c1ccc3c(c1)CCO3)C2 (racemic),115

# System: not listed separately
# Assay: Intrinsic clearance in rat
# Format: ADME
# Details: not given
row,SMILES,CLint scaled [mL/min/kg]
1,O=C(Nc1ccc2scnc2c1)[C@H]1CCN(S(=O)(=O)c2ccc3c(c2)CCO3)C1,201
2,O=C(Nc1ccc2scnc2c1)C1CCN(S(=O)(=O)c2ccc3c(c2)CCO3)C1 (stereo not given),252
3,O=C(Nc1ccc2scnc2c1)[C@@H]1CCN(S(=O)(=O)c2ccc3c(c2)CCO3)C1,356
4,C[C@H]1CN(S(=O)(=O)c2ccc3c(c2)CCO3)C[C@@H]1C(=O)Nc1ccc2scnc2c1,51
5,O=C(Nc1ccc2scnc2c1)C12CC1CN(S(=O)(=O)c1ccc3c(c1)CCO3)C2 (racemic),396

# Biological target: T3, Muscarinic acetylcholine receptor M5 (Rattus norvegicus, UniProt P08911)
# T3 sequence (P08911 whole entry): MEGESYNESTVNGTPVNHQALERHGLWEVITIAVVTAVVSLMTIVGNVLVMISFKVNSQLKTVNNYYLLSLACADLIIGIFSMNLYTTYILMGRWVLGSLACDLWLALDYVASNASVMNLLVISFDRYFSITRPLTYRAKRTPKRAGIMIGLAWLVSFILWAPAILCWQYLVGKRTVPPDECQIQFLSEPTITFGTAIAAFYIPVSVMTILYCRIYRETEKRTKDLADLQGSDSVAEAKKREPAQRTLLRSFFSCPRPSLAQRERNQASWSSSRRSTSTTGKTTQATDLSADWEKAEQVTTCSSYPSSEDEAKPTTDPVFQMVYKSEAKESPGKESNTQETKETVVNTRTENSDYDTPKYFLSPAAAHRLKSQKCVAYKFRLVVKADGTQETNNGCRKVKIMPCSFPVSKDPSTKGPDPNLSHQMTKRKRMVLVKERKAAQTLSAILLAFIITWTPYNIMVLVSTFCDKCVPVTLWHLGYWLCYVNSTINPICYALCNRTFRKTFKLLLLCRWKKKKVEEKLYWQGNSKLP
# Assay: Antagonist activity at rat muscarinic M5 receptor expressed in CHO cells in the presence of acetylcholine by calcium mobilisation assay
# Format: cell-based
# Details: not given
row,SMILES,IC50 [nM]
1,C[C@H]1CN(S(=O)(=O)c2ccc3c(c2)CCO3)C[C@@H]1C(=O)Nc1ccc2scnc2c1,190

# Biological target: T4, Muscarinic acetylcholine receptor M5 (Rattus norvegicus) (UniProt P08911)
# T4 sequence (whole entry): T3 sequence (P08911 whole entry)
# Assay: Antagonist activity at rat muscarinic M5 receptor expressed in CHO cells assessed as minimal acetylcholine response by calcium mobilisation assay relative to control
# Format: cell-based
# Design: scale not given: the % may be the effect or the level left
# Details: filed as antagonist
row,SMILES,Activity [%]
1,C[C@H]1CN(S(=O)(=O)c2ccc3c(c2)CCO3)C[C@@H]1C(=O)Nc1ccc2scnc2c1,2

# Biological target: T5, Muscarinic acetylcholine receptor M1 (Homo sapiens, UniProt P11229)
# T5 sequence (P11229 whole entry): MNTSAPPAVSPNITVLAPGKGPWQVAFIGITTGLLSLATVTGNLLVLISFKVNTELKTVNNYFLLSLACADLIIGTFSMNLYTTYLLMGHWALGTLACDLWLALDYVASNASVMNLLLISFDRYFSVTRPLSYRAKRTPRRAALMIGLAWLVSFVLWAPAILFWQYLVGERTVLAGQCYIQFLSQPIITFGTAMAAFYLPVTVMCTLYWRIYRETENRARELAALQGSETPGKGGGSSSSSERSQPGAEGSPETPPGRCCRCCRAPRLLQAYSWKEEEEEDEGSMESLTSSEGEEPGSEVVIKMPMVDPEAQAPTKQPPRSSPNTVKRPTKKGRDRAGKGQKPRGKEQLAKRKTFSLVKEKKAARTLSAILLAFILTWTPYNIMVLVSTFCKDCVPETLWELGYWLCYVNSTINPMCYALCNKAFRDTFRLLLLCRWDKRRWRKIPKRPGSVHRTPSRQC
# Assay: Antagonist activity at human muscarinic M1 receptor expressed in CHO cells in the presence of acetylcholine by calcium mobilisation assay
# Format: cell-based
# Details: not given
row,SMILES,IC50 [µM]
1,C[C@H]1CN(S(=O)(=O)c2ccc3c(c2)CCO3)C[C@@H]1C(=O)Nc1ccc2scnc2c1,> 10

# Biological target: T6, Muscarinic acetylcholine receptor M1 (Homo sapiens) (UniProt P11229)
# T6 sequence (whole entry): T5 sequence (P11229 whole entry)
# Assay: Antagonist activity at human muscarinic M1 receptor expressed in CHO cells assessed as minimal acetylcholine response by calcium mobilisation assay relative to control
# Format: cell-based
# Design: scale not given: the % may be the effect or the level left
# Details: filed as antagonist
row,SMILES,Activity [%]
1,C[C@H]1CN(S(=O)(=O)c2ccc3c(c2)CCO3)C[C@@H]1C(=O)Nc1ccc2scnc2c1,8

# Biological target: T7, Muscarinic acetylcholine receptor M4 (Homo sapiens, UniProt P08173)
# T7 sequence (P08173 whole entry): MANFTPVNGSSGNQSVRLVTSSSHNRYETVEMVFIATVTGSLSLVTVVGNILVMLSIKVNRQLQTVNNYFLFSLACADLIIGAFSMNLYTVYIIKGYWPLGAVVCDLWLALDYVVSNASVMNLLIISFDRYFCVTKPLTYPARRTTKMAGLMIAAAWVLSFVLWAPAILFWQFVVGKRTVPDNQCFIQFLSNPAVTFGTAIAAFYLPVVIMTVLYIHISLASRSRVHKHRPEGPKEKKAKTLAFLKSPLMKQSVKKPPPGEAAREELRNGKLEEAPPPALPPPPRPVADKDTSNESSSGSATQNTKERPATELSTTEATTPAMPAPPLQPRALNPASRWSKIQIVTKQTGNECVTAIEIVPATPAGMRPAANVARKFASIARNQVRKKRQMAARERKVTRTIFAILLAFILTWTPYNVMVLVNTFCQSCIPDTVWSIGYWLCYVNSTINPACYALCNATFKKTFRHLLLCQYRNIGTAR
# Assay: Antagonist activity at human muscarinic M4 receptor expressed in CHO cells in the presence of acetylcholine by calcium mobilisation assay
# Format: cell-based
# Details: not given
row,SMILES,IC50 [µM]
1,C[C@H]1CN(S(=O)(=O)c2ccc3c(c2)CCO3)C[C@@H]1C(=O)Nc1ccc2scnc2c1,> 10

# System: not listed separately
# Assay: Unbound fraction in rat plasma
# Format: ADME, cell-free
# Details: not given
row,SMILES,Fu
1,C[C@H]1CN(S(=O)(=O)c2ccc3c(c2)CCO3)C[C@@H]1C(=O)Nc1ccc2scnc2c1,0.01

# System: not listed separately
# Assay: Unbound fraction in human plasma
# Format: ADME, cell-free
# Details: not given
row,SMILES,Fu
1,C[C@H]1CN(S(=O)(=O)c2ccc3c(c2)CCO3)C[C@@H]1C(=O)Nc1ccc2scnc2c1,0.03

# System: not listed separately
# Assay: Unbound fraction in rat brain
# Format: ADME, tissue-based
# Details: not given
row,SMILES,fraction unbound
1,C[C@H]1CN(S(=O)(=O)c2ccc3c(c2)CCO3)C[C@@H]1C(=O)Nc1ccc2scnc2c1,0.05

# System: not listed separately
# Assay: Apparent permeability in MDCK-MDR1 cells
# Format: ADME, cell-based, Canis lupus familiaris
# Details: dog
row,SMILES,Papp
1,C[C@H]1CN(S(=O)(=O)c2ccc3c(c2)CCO3)C[C@@H]1C(=O)Nc1ccc2scnc2c1,1.75 10^-6 cm/s

# System: P-glycoprotein
# Assay: Efflux ratio of permeability in MDCK-MDR1 cells expressing P-glycoprotein
# Format: ADME, cell-based, Canis lupus familiaris
# Details: dog
row,SMILES,efflux ratio
1,C[C@H]1CN(S(=O)(=O)c2ccc3c(c2)CCO3)C[C@@H]1C(=O)Nc1ccc2scnc2c1,32.3

# Biological target: T1, Muscarinic acetylcholine receptor M5 (Homo sapiens)
# Assay: Potency index, ratio of VU6027831 IC50 to test compound IC50 for antagonist activity at human M5 muscarinic receptor
# Details: not given
row,SMILES,Ratio IC50
1,O=C(Nc1ccc2scnc2c1)C1CCN(S(=O)(=O)c2ccc3c(c2)CCO3)C1 (stereo not given),2
